Literature values, collected in patent US20050101548A1, “Antimicrobial derivatives” (priority 2003, published 2005).

Tests used:
[1] = test system: macrolide-sensitive and resistant bacteria

| Compound | antibacterial activity against S. pneumoniae (S. pneumoniae) | further results |
| --- | --- | --- |
| C=C1CO[C@@H]2[C@@H](C)/C(=N/C(C)=O)[C@H](C)C[C@@](C)(OC1)[C@H](O[C@@H]1O[C@H](C)C[C@H](N(C)C)[C@H]1O)[C@@H](C)C(=O)[C@@H](C)C(=O)O[C@H](CC)[C@@]2(C)O [EP-1304] | – | activity against some macrolide-sensitive and resistant bacteria in vivo [1]: exhibits activity |
| CC[C@H]1OC(=O)[C@H](C)[C@@H](O[C@H]2C[C@@](C)(OC)[C@@H](O)[C@H](C)O2)[C@H](C)[C@@H](O[C@@H]2O[C@H](C)C[C@H](N(C)C)[C@H]2O)[C@](C)(O)C[C@@H](C)C(=O)[C@H](C)[C@@H](O)[C@]1(C)O [erythromycin A] | – | activity against Gram-negative bacteria (Gram-negative bacteria): only weak activity |
| CC[C@H]1OC(=O)[C@H](C)C(=O)[C@H](C)[C@@H](O[C@@H]2O[C@H](C)C[C@H](N(C)C)[C@H]2O)[C@@]2(C)C[C@@H](C)/C(=N\C(C)=O)[C@H](C)[C@@H](OCC(=NOCc3ccccc3)CO2)[C@]1(C)O [EP-1562] | possess antibacterial activity | – |
| CC[C@H]1OC(=O)[C@H](C)C(=O)[C@H](C)[C@@H](O[C@@H]2O[C@H](C)C[C@H](N(C)C)[C@H]2O)[C@@]2(C)C[C@@H](C)/C(=N\C(C)=O)[C@H](C)[C@@H](OCC(=NOCc3ccc(-c4cccnc4)s3)CO2)[C@]1(C)O [EP-12728] | possess antibacterial activity | – |
